The structures appear in SMILES notation.

The conditions of data set [1]: added to existing treatment; within 3 months of treatment; cited from earlier work.
Data set [2] in a line: Pharmacokinetic determination in monkeys after gavage administration (P.O.). It counts as in vivo, Cynomolgus monkeys (Macaca fascicularis). The note with it: cynomolgus monkey, po, 1 mg/kg, plasma. As to the method:
Cynomolgus monkeys (Macaca fascicularis) were used as test animals to study the pharmacokinetic behavior of the compounds of the present disclosure in plasma following gavage administration (P.O.). Plasma samples were collected at specific time points, compound concentrations in plasma were detected by LC-MS/MS, and pharmacokinetic parameters were calculated to reflect the pharmacokinetics in cynomolgus monkeys.
Cynomolgus monkeys, male, Ankaiyibo (Zhanjiang) Biotechnology Co., Ltd.
After administration to cynomolgus monkeys, venous blood samples of 0.3 mL were collected at 0.25, 0.5, 1, 2, 4, 8, and 24 hours and placed in EDTA-K2 test tubes. Plasma was separated by centrifugation at 4 °C, 4000 g for 5 minutes and stored at -80 °C.
• 1) 50 µL of plasma sample was precipitated by adding 200 µL of acetonitrile, vortex mixed, and centrifuged for 15 minutes. • 2) The processed supernatant was diluted with water and analyzed by LC/MS/MS to determine the concentration of the test compound.
Pharmacokinetic parameters were calculated using WinNonlin 8.3. Cmax represents the maximum plasma concentration, T1/2 represents the terminal elimination half-life, MRTInf represents the mean residence time, and AUC represents the area under the plasma concentration-time curve. Table 6 Pharmacokinetic Parameters of the Compounds of the Present Disclosure in Monkeys

The next data set addresses T1, human CYP11B1 enzyme (Homo sapiens, UniProt P15538).
T1 construct: the ORF of human CYP11B1 or CYP11B2 were transfected into G402 cells; expressed in transfected cells
T1 sequence (P15538 25-503): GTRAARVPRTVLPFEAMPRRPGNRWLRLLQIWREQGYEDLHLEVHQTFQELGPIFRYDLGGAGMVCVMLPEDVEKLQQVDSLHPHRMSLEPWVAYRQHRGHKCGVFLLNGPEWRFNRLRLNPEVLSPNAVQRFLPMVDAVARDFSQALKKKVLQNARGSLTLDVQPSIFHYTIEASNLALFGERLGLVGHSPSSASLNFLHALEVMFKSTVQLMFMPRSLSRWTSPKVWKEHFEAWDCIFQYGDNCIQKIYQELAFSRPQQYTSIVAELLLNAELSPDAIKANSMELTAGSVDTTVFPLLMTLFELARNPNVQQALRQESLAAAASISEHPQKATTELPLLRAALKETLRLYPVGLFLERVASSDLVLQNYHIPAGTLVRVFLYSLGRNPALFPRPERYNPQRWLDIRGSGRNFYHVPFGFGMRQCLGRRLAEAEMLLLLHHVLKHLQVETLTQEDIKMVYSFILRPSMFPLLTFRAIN
The data set is described as follows: Enzyme inhibition activity assay in G402 cells stably expressing human CYP11B1 (cortisol production from 11-DC, LC/MS). It is filed as cell-based. The note with it: 1 µM 11-DC, 16 hours, cortisol detected. The method in brief: (§1)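 G402 cells stably expressing human CYP11B2 or CYP11B1, preincubated 1 h with inhibitor in DMEM/F12 plus 2.5% charcoal-stripped FCS, then 16 h with 1 µM 11-DOC or 1 µM 11-DC. Aldosterone or cortisol quantified by LC/MS; IC50 from four-parameter logistic fit versus uninhibited control.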

For a further data set, the target named is T2, human CYP11B2 enzyme (Homo sapiens, UniProt P19099).
T2 construct: the ORF of human CYP11B1 or CYP11B2 were transfected into G402 cells; expressed in transfected cells
T2 sequence (P19099 25-503): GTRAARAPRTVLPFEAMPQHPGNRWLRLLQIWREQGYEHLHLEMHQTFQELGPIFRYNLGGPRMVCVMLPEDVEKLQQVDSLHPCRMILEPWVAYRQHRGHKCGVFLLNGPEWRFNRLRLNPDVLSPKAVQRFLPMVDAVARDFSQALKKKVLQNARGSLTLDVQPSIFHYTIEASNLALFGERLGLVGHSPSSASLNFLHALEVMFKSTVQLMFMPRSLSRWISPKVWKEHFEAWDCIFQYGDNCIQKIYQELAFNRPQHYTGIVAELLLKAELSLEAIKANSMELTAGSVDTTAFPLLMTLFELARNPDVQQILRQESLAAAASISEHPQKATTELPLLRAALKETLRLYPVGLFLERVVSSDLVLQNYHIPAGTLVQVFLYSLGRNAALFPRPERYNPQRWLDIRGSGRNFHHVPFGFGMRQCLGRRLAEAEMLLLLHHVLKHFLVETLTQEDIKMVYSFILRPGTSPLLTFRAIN
Nature of the data set: Enzyme inhibition activity assay in G402 cells stably expressing human CYP11B2 (aldosterone production from 11-DOC, LC/MS). It is filed as cell-based. The following applies: 1 µM 11-DOC, 16 hours, aldosterone detected. The method in brief:
as §1

Data set [3] in a line: Pharmacokinetic determination in mice after gavage administration (P.O.). It is filed as in vivo. The following applies: male, CD-1, mouse, po, 10 mg/kg, plasma. As to the method: Mice and rats were used as test animals to study the pharmacokinetic behavior of the compounds of the present disclosure in plasma following gavage administration (P.O.). Plasma samples were collected at specific time points, compound concentrations in plasma were detected by LC-MS/MS, and pharmacokinetic parameters were calculated to evaluate the pharmacokinetics.
• Mice, CD-1, male, Zhejiang Vital River Laboratory Animal Technology Co., Ltd. • Rats, Sprague-Dawley, male, Zhejiang Vital River Laboratory Animal Technology Co., Ltd., Shanghai Jihui Experimental Animal Breeding Co., Ltd.
After administration to mice and rats, venous blood samples of 0.03 mL and 0.2 mL, respectively, were collected at 0.0833 (IV), 0.25, 0.5, 1, 2, 4, 8, and 24 hours and placed in EDTA-K2 test tubes. Plasma was separated by centrifugation at 4 °C, 4000 g for 5 minutes and stored at -80 °C.
• 1) 10 µL of plasma sample was precipitated by adding 200 µL of acetonitrile, vortex mixed, and centrifuged for 15 minutes. • 2) The processed supernatant was diluted with water and analyzed by LC/MS/MS to determine the concentration of the test compound.
Pharmacokinetic parameters were calculated using WinNonlin 8.3. The pharmacokinetic parameters for mice P.O. are shown in Table 4, and for rats P.O. in Table 5. Cmax represents the maximum plasma concentration, T1/2 represents the terminal elimination half-life, MRTInf represents the mean residence time, and AUC represents the area under the plasma concentration-time curve. Table 4 Pharmacokinetic Parameters of the Compounds of the Present Disclosure in Mice

A further data set is described as follows: in vivo. The note with it: male, Sprague-Dawley, rat, plasma, po, 10 mg/kg.

Method for in vivo: Pharmacokinetic parameters were calculated using WinNonlin 8.3. […] Cmax represents the maximum plasma concentration, T1/2 represents the terminal elimination half-life, MRTInf represents the mean residence time, and AUC represents the area under the plasma concentration-time curve.

For the molecule `CC(=O)S[C@@H]1CC2=CC(=O)CC[C@]2(C)[C@H]2CC[C@@]3(C)[C@@H](CC[C@@]34CCC(=O)O4)[C@H]12` [spironolactone], the “patients with resistant hypertension achieving effective control of blood pressure (systolic blood pressure <135 mm Hg)” value in data set [1] is 60%.
In general, Cmax refers to the highest concentration seen after dosing. For orientation: MRT inf means the average time that molecules of a dose stay in the body. The half-life is how long it takes for the measured level to halve. A higher half-life goes with slow decline. By IC50 is commonly meant the midpoint of a concentration-inhibition curve. High values mean lower potency, low ones higher potency. In data set [2] (in vivo), `CCC(=O)N[C@@H]1CCOc2c(-c3ccc4c(c3)cc(C#N)n4C)cncc21` [Compound A10-P2] showed a Cmax of 3.28 µM, an MRT inf of 9.14 h and a half-life of 8.48 h. Further, the AUC(0-t) at 24 h in data set [2] (in vivo, read-out: AUC0-24) was determined as 29.1 µM·h. Moreover, inhibition against human CYP11B1 enzyme was half-maximal at 316 nM (IC50). Further, at human CYP11B2 enzyme, the IC50 was 1.8 nM.
In the case of `CCC(=O)N[C@@H]1CCCc2c(-c3ccc4c(c3)CCC(=O)N4C)cncc21` [Control Compound, reference compound], the results for the Cmax (in data set [2] (male); in data set [3]; in the data set “in vivo”) were 0.834 µM, 12.2 µM and 11.4 µM, respectively. In addition, the AUC(0-t) in data set [2] (male, read-out: AUC0-24) was found to be 6 µM·h; in data set [3] (read-out: AUC0-24), 57.3 µM·h; in the data set “in vivo”, 109 µM·h. The MRT inf in data set [3] was 3.59 h; in the data set “in vivo”, 6.41 h. Also, the results for the half-life (in data set [3]; in “in vivo”) were 1.86 h and 4.31 h, respectively.

The values above are taken from patent publication EP4806899A1, “FUSED RING DERIVATIVE, PREPARATION METHOD THEREFOR AND USE THEREOF IN MEDICINE” (Shanghai Qilu Pharmaceutical Research and Development …, priority 2023, dated 2025).
